Patent US6962909B2, “Treatment of neovascularization disorders with squalimine” (Genaera Corporation, priority 1995, dated 2005)
≈ marks a conversion by molar mass, not a printed value. Entries after “also recorded” stand apart in the source; their conditions may differ.

What was measured:
[1] = test system: Stage 59-60 Xenopus tadpoles; test: Xenopus tadpole assay; type: in vivo, Xenopus laevis; conditions: 10 μg/ml in water
Procedure, shortened: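 Stage 59-60 Xenopus laevis tadpoles placed in compound dissolved in distilled water at 10 μg/ml, allowing oral uptake and systemic exposure. After 1 hour, capillary blood-flow occlusion in the tail was scored by inverted microscopy (~100×) plus gross observation.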

[2] = test system: human microvascular cells; test: Endothelial cord formation assay; type: cell-based
From the text: Endothelial cells have the capacity in vitro to form tubular aggregates resembling capillaries in various early stages of formation. This conversion occurs under relatively specific conditions, in which essential growth factors along with an effective substratum are provided. It has been shown that both the interaction of growth factors with the endothelial cell and its attachment to a substratum activate the NHE. The activation of this exchanger is believed to be required for subsequent morphologic transformation of the endothelial cell into a multicellular tubular structure.
To assess the effect of compounds on the cord-like structures formed by human microvascular cells when plated in the presence of VGEF (Vascular Endothelial Growth Factor) and basic fibroblast growth factor on a collagen matrix, a standard cord formation assay was used.

B16 melanoma = test: Growth of B16 melanoma in C57B mice; type: in vivo; conditions: subcutaneous administration
Procedure: The growth of B16 melanoma in C57B mice is dependent upon neovascularization.
Using the growth of B16 melanoma cells in C57B mice, a recognized model for the evaluation of inhibitors of angiogenesis on the growth of cancers, the effects of subcutaneous, intraperitoneal and oral administration of squalamine were evaluated.
Animals were implanted with B16 melanoma followed by treatment with compound 1436 or 1256 administered in a combined schedule or separately. […] Thus, a combination of these two compounds achieves a therapeutic benefit in tumors dependent on neovascularization that may prevent metastatic spread.

[3] = test system: vitelline capillaries of 3- to 5-day chick embryo; test: Chick embryo vitelline capillary regression assay; type: in vivo; design: key to Vascular reactivity (capillary regression): + = Vascular reactivity; 0 = No vascular reactivity; +/− = Equivocal reactivity; conditions: for Vascular reactivity (capillary regression): 60 minutes
Procedure, shortened: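 Compounds were applied onto the 3- to 5-day embryo in 0.1 ml 15% Ficol 400 in PBS. Vascular regression was assessed visually after 60 min, scoring capillary constriction and pinching-off into enclosed blood-island-like sacs.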

Mouse IV PK study = conditions: in vivo
Procedure: To assess clearance, a mouse IV PK study was performed for compound 319 and squalamine. The compound was administered i.v. and blood samples were taken every 10 minutes. The concentration of the administered steroid was determined by HPLC analysis.

[4] = test system: PHA-stimulated human lymphocytes; test: Inhibition of mitogen-stimulated growth of human T-cells; type: cell-based; conditions: 10 μg/ml; 72 hours
Procedure: Human heparinized blood, freshly collected, was introduced into tissue culture flasks containing 10 μg/ml phytohaemagglutinin (PHA) in RPMI medium with 10% FCS. Various purified steroids were introduced subsequently at concentrations of 1, 5, and 10 μg/ml. Cultures were incubated for 72 hours, after which time colcemid was added to 1 μg/ml. Cultures were maintained for an additional 2 hours, and cells collected. Mitotic figures were estimated using standard cytochemical techniques, following Giemsa staining.

[5] = Fasting blood glucose in mice; type: in vivo
Procedure: To study the effect of steroid administrator or the NHE responsible for secretion of insulin, several of the aminosterols from shark liver were administered to fasting mice. Male CD-1 mice were assigned to one of four treatment groups. Whole blood glucose was tested using glucometer (Lifescan Glucometer II and One Touch test strips). Statistical analysis was via one-way analysis of variance (ANOVA) followed by subsequent Bonferonni's t-test.

[6] = test system: Human ovarian carcinoma SKOV3; test: In vitro cell growth inhibition (assay of Baker et al.); type: cell-based
Procedure: (§1) As set forth in Table 7 below, all malignant tumors evaluated in tissue culture, endothelial cells and vascular smooth muscle cells were sensitive to inhibition. Thus, compound 1436 has application in the control of growth factor dependent proliferation of many types of tissue.
Using the assay described above, the anticancer effects of compound 1437 against several cancer lines was assessed.

Lewis lung carcinoma = test: as above; type: cell-based
From the text: as §1

Human melanoma WM 1167 = test: Cytotoxic activity against cancer cells
MTT (Table II) = type: cell-based
From the text: As set forth in Table II, which follows Table I, the activities of natural and synthetic aminosterols in the different assays vary. In light of the foregoing, it is now possible to screen for steroids with or without squalamine-like pharmacological activity.

CC(CCC(=O)O)[C@H]1CCC2C3CC[C@H]4C[C@@H](NCCCNCCCCN)CC[C@]4(C)C3CC[C@@]21C (stereo partly shown) [Compound 319]
Pharmacological category in tadpole assay (similarity to a reference steroid) [1]: common vascular occlusive effect
Effect on endothelial cord formation ([2]; 0.01 μg/ml): −
Effect on endothelial cord formation ([2]; 0.1 μg/ml): +
Effect on endothelial cord formation ([2]; 1.0 μg/ml): +
Effect on endothelial cord formation ([2]; 10.0 μg/ml): +
Control of B16 melanoma (B16 melanoma): achieved control of B16 in C57B mice to an extent almost comparable to squalamine
Vascular reactivity (capillary regression) ([3]; 0.001 μg applied): +/−
Vascular reactivity (capillary regression) ([3]; 0.01 μg applied): +
Vascular reactivity (capillary regression) ([3]; 0.1 μg applied): +
Vascular reactivity (capillary regression) ([3]; 1 μg applied): +
Vascular reactivity (capillary regression) ([3]; 10 μg applied): +
half-life (Mouse IV PK study): ~14 min

CC(CCC(CO)(OS(=O)(=O)O)C(C)C)[C@H]1CCC2C3C(CC[C@@]21C)[C@@]1(C)CC[C@H](NCCCNCCCCN)C[C@@H]1C[C@H]3O (stereo partly shown) [Compound 1437]
Pharmacological response observed in tadpole ([1]; about 1 hour): Epithelium covering the embryonic portions of the animal, such as the tail and antennae, began to slough off in sheets; also recorded: the larval skin was observed to shed off in a sheet
Inhibition of PHA-stimulated human lymphocytes [4]: 10 % control
Effect on blood glucose ([5]; intravenous, 1436 in D5W (5% glucose), 1437 in water): caused hyperglycemia in mice
Fasting Blood Glucose Mean + SEM ([5]; male CD-1 mice, 2 × 10 mg/kg i.v. (total 20 mg/kg), overnight fast, blood 30 min. after 2d dose, 1437 and 1256 in H2O, 1436 in D5W): 82 ± 15.3 mg/dL
Anticancer activity [6]: exhibit anticancer activity

CC(C)CCCC(C)[C@H]1CCC2C3CC[C@H]4C[C@@H](NCCCNCCCCNCCCN)CC[C@]4(C)C3CC[C@@]21C (stereo partly shown) [Compound 353]
Pharmacological category in tadpole assay (similarity to a reference steroid) [1]: effects like those produced by compound 1436
Effect on endothelial cord formation ([2]; 0.1 μg/ml): +
Effect on endothelial cord formation ([2]; 1.0 μg/ml): +
Effect on endothelial cord formation ([2]; 10.0 μg/ml): +
IC50 (Lewis lung carcinoma): 1.9 µg/mL (≈ 3.32 µM)
Vascular reactivity (capillary regression) ([3]; 1 μg applied): +/−
Effect on chick embryo capillary bed ([3]; in vivo): no effect on the chick embryo capillary bed
Mechanism of cell death in exposed cells (Human melanoma WM 1167): apoptotic cell death has been induced
IC50 (Human melanoma WM 1167; Homo sapiens): 3 µg/mL (≈ 5.24 µM)

CC(C)CCCC(C)[C@H]1CCC2C3CC[C@H]4C[C@@H](NCCCNCCCCNCCCN)CC[C@]4(C)C3CC[C@@]21C (stereo partly shown) [drawing 96]
Cord Formation, Minimum Effective Concentration [2]: 10 µg/mL
MTT (MTT (Table II)): 19 µg/mL
